From patent US20260048060A1, “POLYCYCLIC THYROID HORMONE b RECEPTOR AGONIST AND USE THEREOF” (CASCADE PHARMACEUTICALS, INC., priority 2022, published 2026) come the findings set out here.

Test [1] deals with T1, THRβ (Homo sapiens, UniProt P10828).
T1 construct: made in house; host or cells: E. coli BL21 (DE3)
T1 sequence (P10828 217-461 limits assumed): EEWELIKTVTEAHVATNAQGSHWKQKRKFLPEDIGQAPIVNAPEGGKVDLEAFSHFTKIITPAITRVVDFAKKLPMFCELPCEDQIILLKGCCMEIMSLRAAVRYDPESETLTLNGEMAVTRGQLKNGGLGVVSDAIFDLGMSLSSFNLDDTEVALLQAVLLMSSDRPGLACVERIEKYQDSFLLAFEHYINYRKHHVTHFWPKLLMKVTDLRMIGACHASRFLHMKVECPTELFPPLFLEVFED
The test can be described thus: Time-resolved FRET (THR-FRET) agonist activity assay, GST-tagged THRβ LBD with SRC2 polypeptide. The test is classed as biochemical. Particulars: ratio of THR-FRET EC50 values THRα/THRβ. The source says: Experimental Example 2: Detection of Agonist Activities of Compounds Against THRα/β Based on Time-Resolved Fluorescence Resonance Energy Transfer (THR-FRET)
By visiting NCBI, the THRα/β LBD domain sequences were found. The pET21-His-GST-dLBT-THRα LBD and pET21-His-GST-dLBT-THRβ LBD overexpression vectors were constructed by the fusion method, and sequenced to confirm the accuracy of the sequences.
The correctly sequenced THRα LBD and THRβ LBD overexpression vectors were transfected into E. coli cells BL21 (DE3), and spread on an agar plate with ampicillin. Monoclones were picked out and amplified in an LB medium, and transferred into 1 L LB at a ratio of 1:100 for large-scale culture. When the OD value was at 0.8 to 1.2, 0.5 mM isopropyl-beta-D-thiogalactopyranoside (IPTG) was added, and induced overnight at 18° C. The bacteria were harvested, disrupted, and purified via the GST column and the molecular sieve to obtain two proteins His-GST-dLBT-THRα LBD and His-GST-dLBT-THRβ LBD.
The proteins were taken out from a refrigerator at −80° C. The proteins with the GST-tagged THRα/β LBD domain and the Eu-labelled GST antibodies were thawed slowly on ice, and an assay buffer containing a final concentration of 5 mM dithiothreitol (DTT) was formulated.
The starting concentration of the compound was 100 μM (in DMSO). The compound (100 μM in DMSO) was subjected to 3-fold isogradient dilution with DMSO to obtain a total of 11 isogradient concentrations. Subsequently, the above compounds at the isogradient concentration were further subjected to 50-fold dilution with an assay buffer containing 5 mM DTT.
The final concentrations of all components were calculated based on a system with a final volume of 20 μL per well. To 18 μL of assay buffer containing 5 mM DTT, the GST-tagged THRα/β proteins, the SRC2 ([…]) polypeptide, XL665 (Cisobio, #610SAXLB), and the Eu-labeled GST antibody were added, and the final concentrations were 2 nM, 200 nM, 0.05 nM, and 7.6 nM respectively to formulate 18 μL of reaction mixture of the proteins, polypeptide, and antibody per well.
18 μL of reaction mixture and 2 μL of diluted compound were added into an optiplate-384-well plate, and reacted at room temperature for 24 h.
The plate was read using an MD i3X multi-mode microplate reader with the excitation and emission wavelengths of 340 nm and 665 nm, respectively. The intensity of light at a wavelength of 616 nm generated by europium excited by 340 nm wavelength light from the MD i3X multi-mode microplate reader was used as the background. According to the different activation degrees of different compounds against THRα and THRβ, the intensity of the emission light at a wavelength of 665 nm generated by exciting XL665 with the exciting light at a wavelength of 616 nm was varied. The intensity ratio between these two light wavelengths (665 nm, 616 nm) was used as the activation activity of the compound against THRα or THRβ, and the ratio in the solvent DMSO group was used for normalization. The dose-response curve was fitted with four parameters using the GraphPad Prism 6.0 software, and the EC50 value was calculated.

Test [2] concerns the target T2, THRβ (Homo sapiens, UniProt P10828).
T2 construct: expressed in transfected cells; host or cells: HEK293T
T2 sequence (P10828 217-461): T1 sequence (P10828 217-461 limits assumed)
Briefly: Reporter gene (GAL4-THRβ-LBD / Dual-Glo luciferase) agonist activity assay in HEK293T cells. The test is classed as cell-based. The following applies: ratio of reporter gene EC50 values THRα/THRβ. An excerpt:
Experimental Example 1: Detection of THRα and THRβ Agonist Activities of Compounds Based on Reporter Gene Activity Assay Method
1.1 Construction and Preparation of Plasmids pGAL4-THR-LBD and pG5-Luc
The pGAL4-THRα-LBD and pGAL4-THRβ-LBD plasmids used in the reporter gene assay system were constructed by a conventional molecular cloning method comprising the following main steps: the cDNA sequences of THRα (NM_003250) and THRβ (NM_000461) corresponding to the amino acid sequences of THRα (163-407AA) and THRβ (217-461AA) were inserted into the BamHI and NotI enzyme digestion sites of the pGAL4 vector by the PCR technique respectively to obtain the pGAL4-THRα-LBD and pGAL4-THRβ-LBD plasmids; the pG5-Luc (#E249A) and pRL-TK (#E2241) plasmids were purchased from Promega; the plasmids were transfected into the E. coli DH5α by the CaCl2 method, and after further culture and amplification, the plasmids were purified by Plasmid Extraction Kits (TIANGEN, #D107) to obtain the corresponding plasmid DNAs.
1.2 Co-Transfection of Plasmids into HEK293T Cells and Treatment with Compounds
The HEK293T cells were inoculated into a 96-well plate at a density of 1×10^4/well the day before plasmid transfection. Cell transfection was conducted according to the instructions of the transfection reagent FuGENE® HD (Promega, #E2311). The main steps were as follows: taking one well as an example here, the plasmids pGAL4-THRα-LBD or pGAL4-THRβ-LBD, pG5-Luc, and pRL-TK were added in the proportions of 20 ng, 50 ng, and 5 ng to 10 μL of Opti-MEM™ I medium (Gibco, #11058021) and mixed well; subsequently, 0.25 uL of FuGENE® HD was added, mixed well, and then left at room temperature for 5 min; afterwards, 10 μL of the mixture was added to the cell wells containing 100 μL of culture medium. After cell co-transfection for 6 h, the compound was diluted in a 3-fold gradient with dimethyl sulfoxide at the highest concentration of 1 uM. The compound was added to the cell culture medium at a total of 10 concentrations for treatment for 24 h. There were a total of two duplicate wells for each concentration. Triiodothyronine (T3) was used as the positive control.
1.3 Dual-Glo Luciferase Assay
After the cells were treated with the compound for 24 h, the cells were assayed according to the instructions of Dual-Glo® Luciferase Assay System (Promega, #E2940). The main steps were as follows: 50 μL of culture medium was aspirated from each well and discarded, and then 50 μL of Dual-Glo® Luciferase reagent was added and oscillated at room temperature for 10 min; 80 μL of lysis reaction solution was measured into a white opaque optiPlate-96-well plate, and the luminescence signal value (Firefly-Luc) of the Firefly luciferase was detected using an MD i3x multi-mode microplate reader; 40 μL of Dual-Glo® Stop & Glo® reagent was then added, and oscillated at room temperature for 10 min; the luminescence signal value (Renilla-Luc) of the Renilla luciferase was then detected using an MD i3x multi-mode microplate reader. The Firefly-Luc/Renilla-Luc ratio was used as the activation activity of the compound against THR, and the ratio in the solvent DMSO group was used for normalization; the dose-response curve was fitted with four parameters using the GraphPad Prism6.0 software, and the EC50 value was calculated.
A general note: A reporter such as luciferase makes a cellular process visible.

For the molecule `N#Cc1nn(-c2cc(Cl)c(COc3ccccc3C(N)=O)c(Cl)c2)c(=O)[nH]c1=O` [Compound 1], at THRβ [1], the “Selectivity (THRα/THRβ)” value is reported as “†† (††: 10 ≥ THRα/β;)”. Take `CNC(=O)c1ccccc1OCc1c(Cl)cc(-n2nc(C#N)c(=O)[nH]c2=O)cc1Cl` [Compound 2]: on THRβ [1], the “Selectivity (THRα/THRβ)” value is “†† (††: 10 ≥ THRα/β;)”. On the same count and under the same terms, in the case of `N#Cc1nn(-c2cc(Cl)c(CSc3ccccc3C(=O)O)c(Cl)c2)c(=O)[nH]c1=O` [Compound 6] it was “††† (†††: 20 ≥ THRα/β > 10;)”; in that of `CNC(=O)c1ccccc1SCc1c(Cl)cc(-n2nc(C#N)c(=O)[nH]c2=O)cc1Cl` [Compound 7], “††† (†††: 20 ≥ THRα/β > 10;)”; in that of `CNC(=O)c1ccccc1NCc1c(Cl)cc(-n2nc(C#N)c(=O)[nH]c2=O)cc1Cl` [Compound 9], “†† (††: 10 ≥ THRα/β;)”. The same measure, in the same setting: the result for `N#Cc1nn(-c2cc(Cl)c(CNc3ccccc3C(=O)O)c(Cl)c2)c(=O)[nH]c1=O` [Compound 10] reads “††† (†††: 20 ≥ THRα/β > 10;)”. The same measure, in the same setting: in the case of `N#Cc1nn(-c2cc(Br)c(COc3ccccc3C(N)=O)c(Br)c2)c(=O)[nH]c1=O` [Compound 11] it was “†† (††: 10 ≥ THRα/β;)”; in that of `CNC(=O)c1ccccc1OCc1c(Br)cc(-n2nc(C#N)c(=O)[nH]c2=O)cc1Br` [Compound 12], “†† (††: 10 ≥ THRα/β;)”; in that of `CNC(=O)c1ccccc1SCc1c(Br)cc(-n2nc(C#N)c(=O)[nH]c2=O)cc1Br` [Compound 13], “†† (††: 10 ≥ THRα/β;)”. Turning to `NC(=O)c1ccccc1OCc1c(Cl)cc(-n2ncc(=O)[nH]c2=O)cc1Cl` [Compound 14], the “Selectivity (THRα/THRβ)” value on THRβ [2] is on record as “† (†: 5 ≥ THRα/β;)”; on THRβ [1], “†† (††: 10 ≥ THRα/β;)”. As to `CNC(=O)c1ccccc1OCc1c(Cl)cc(-n2ncc(=O)[nH]c2=O)cc1Cl` [Compound 17], the “Selectivity (THRα/THRβ)” value is given as “† (†: 5 ≥ THRα/β;)” at THRβ [2] and “†† (††: 10 ≥ THRα/β;)” at THRβ [1].

`O=C(O)c1ccccc1SCc1c(Cl)cc(-n2ncc(=O)[nH]c2=O)cc1Cl` [Compound 18]: at THRβ [1], the “Selectivity (THRα/THRβ)” value was “††† (†††: 20 ≥ THRα/β > 10;)”. Same read-out and setting: in the case of `NC(=O)c1ccccc1SCc1c(Cl)cc(-n2ncc(=O)[nH]c2=O)cc1Cl` [Compound 19] it was “††† (†††: 20 ≥ THRα/β > 10;)”; in that of `CNC(=O)c1ccccc1SCc1c(Cl)cc(-n2ncc(=O)[nH]c2=O)cc1Cl` [Compound 20], “††† (†††: 20 ≥ THRα/β > 10;)”. On the same count and under the same terms, in the case of `CC(C)NC(=O)c1ccccc1SCc1c(Cl)cc(-n2ncc(=O)[nH]c2=O)cc1Cl` [Compound 22] it was “††† (†††: 20 ≥ THRα/β > 10;)”; in that of `CCNC(=O)c1ccccc1SCc1c(Cl)cc(-n2ncc(=O)[nH]c2=O)cc1Cl` [Compound 24], “†† (††: 10 ≥ THRα/β;)”. Regarding `CNC(=O)c1ccccc1SCc1c(Br)cc(-n2ncc(=O)[nH]c2=O)cc1Br` [Compound 25], the “Selectivity (THRα/THRβ)” value on THRβ [2] was “† (†: 5 ≥ THRα/β;)”; at THRβ [1], “††† (†††: 20 ≥ THRα/β > 10;)”.

In the case of `O=C(O)c1ccccc1NCc1c(Cl)cc(-n2ncc(=O)[nH]c2=O)cc1Cl` [Compound 26], at THRβ [1], the “Selectivity (THRα/THRβ)” value was “††† (†††: 20 ≥ THRα/β > 10;)”. Take `CNC(=O)c1ccccc1SCc1c(Cl)cc(-n2nc(N)c(=O)[nH]c2=O)cc1Cl` [Compound 29]: the results for the “Selectivity (THRα/THRβ)” value on THRβ [2] and at THRβ [1] were “† (†: 5 ≥ THRα/β;)” and “††† (†††: 20 ≥ THRα/β > 10;)”, respectively. Consider `Cc1ccc(C(N)=O)c(OCc2c(Cl)cc(-n3ncc(=O)[nH]c3=O)cc2Cl)c1` [Compound 33], for which the “Selectivity (THRα/THRβ)” value on THRβ [1] was “††† (†††: 20 ≥ THRα/β > 10;)”. Turning to `NC(=O)c1ccccc1OCc1c(Br)cc(-n2ncc(=O)[nH]c2=O)cc1Br` [Compound 38], the “Selectivity (THRα/THRβ)” value is “†† (††: 10 ≥ THRα/β > 5;)” on THRβ [2] and “†† (††: 10 ≥ THRα/β;)” at THRβ [1]. With `O=C(NO)c1ccccc1OCc1c(Cl)cc(-n2ncc(=O)[nH]c2=O)cc1Cl` [Compound 42], the “Selectivity (THRα/THRβ)” value on THRβ [1] is “†† (††: 10 ≥ THRα/β;)”.

As for `NC(=O)c1sccc1OCc1c(Cl)cc(-n2ncc(=O)[nH]c2=O)cc1Cl` [Compound 45], the entries for the “Selectivity (THRα/THRβ)” value on THRβ [2] and at THRβ [1] were “† (†: 5 ≥ THRα/β;)” and “†† (††: 10 ≥ THRα/β;)”, respectively. In the same order, the values of `CNC(=O)c1ccccc1OCc1c(Cl)cc(-n2nc(C(F)F)c(=O)[nH]c2=O)cc1Cl` [Compound 53] are “† (†: 5 ≥ THRα/β;)” and “†† (††: 10 ≥ THRα/β;)”. On to `NC(=O)c1ccccc1OCc1c(Cl)cc(-n2nc(C(F)F)c(=O)[nH]c2=O)cc1Cl` [Compound 54], for which the “Selectivity (THRα/THRβ)” value is “† (†: 5 ≥ THRα/β;)” on THRβ [2] and “†† (††: 10 ≥ THRα/β;)” on THRβ [1]. Regarding `CNC(=O)c1ccccc1SCc1c(Cl)cc(-n2nc(C(F)F)c(=O)[nH]c2=O)cc1Cl` [Compound 55], the “Selectivity (THRα/THRβ)” value on THRβ [1] was “†† (††: 10 ≥ THRα/β;)”. Consider `COc1ccc(OCc2c(Cl)cc(-n3ncc(=O)[nH]c3=O)cc2Cl)c(C(N)=O)c1` [Compound 69], for which the “Selectivity (THRα/THRβ)” value was “† (†: 5 ≥ THRα/β;)” at THRβ [2] and “††† (†††: 20 ≥ THRα/β > 10;)” on THRβ [1]. With `CNC(=O)c1ccccc1Oc1c(Cl)cc(-n2ncc(=O)[nH]c2=O)cc1Cl` [Compound 114, reference compound], the “Selectivity (THRα/THRβ)” value on THRβ [1] is reported as “†† (††: 10 ≥ THRα/β;)”.
